According to patent US20090226527A1, “Particulate-stabilized injectable pharmacutical compositions of posaconazole” (priority 2004, published 2009):
In brackets after ≈: the same amount, converted by molar mass.

Tested on: infectious agents (strains tested)
Experiment: organism not typed
Format: cell-based

CCC([C@@H](C)O)n1ncn(-c2ccc(N3CCN(c4ccc(OC[C@@H]5CO[C@@](Cn6cncn6)(c6ccc(F)cc6F)C5)cc4)CC3)cc2)c1=O (stereo partly shown) [Posaconazole]
MIC (Absidia spp, read-out: Geometric Mean MIC): 0.177 µg/mL (≈ 0.253 µM) | MIC (Absidia spp, read-out: MIC[90]): 0.031 to 0.5 µg/mL (≈ 0.0442 to 0.713 µM) | MIC (Alternaria spp, read-out: Geometric Mean MIC): 0.101 µg/mL (≈ 0.144 µM) | MIC (Alternaria spp, read-out: MIC[90]): 0.25 µg/mL (≈ 0.357 µM) | MIC (Apophysomyces spp, read-out: Geometric Mean MIC): 0.34 µg/mL (≈ 0.485 µM) | MIC (Apophysomyces spp, read-out: MIC[90]): 0.031 to 4 µg/mL (≈ 0.0442 to 5.71 µM) | MIC (Arthroderma terrestre, Trichophyton terrestre, read-out: Geometric Mean MIC): 0.125 µg/mL (≈ 0.178 µM) | MIC (Arthroderma terrestre, Trichophyton terrestre, read-out: MIC[90]): 0.125 µg/mL (≈ 0.178 µM) | MIC (Aspergillus flavus, read-out: Geometric Mean MIC): 0.079 µg/mL (≈ 0.113 µM) | MIC (Aspergillus flavus, read-out: MIC[90]): 0.25 µg/mL (≈ 0.357 µM) | MIC (Aspergillus fumigatus, read-out: Geometric Mean MIC): 0.118 µg/mL (≈ 0.168 µM) | MIC (Aspergillus fumigatus, read-out: MIC[90]): 0.5 µg/mL (≈ 0.713 µM) | MIC (Aspergillus nidulans, read-out: Geometric Mean MIC): 0.055 µg/mL (≈ 0.0785 µM) | MIC (Aspergillus nidulans, read-out: MIC[90]): 0.25 µg/mL (≈ 0.357 µM) | MIC (Aspergillus niger, read-out: Geometric Mean MIC): 0.195 µg/mL (≈ 0.278 µM) | MIC (Aspergillus niger, read-out: MIC[90]): 0.5 µg/mL (≈ 0.713 µM) | MIC (Aspergillus sydowii, read-out: Geometric Mean MIC): 0.177 µg/mL (≈ 0.253 µM) | MIC (Aspergillus sydowii, read-out: MIC[90]): 0.031 to 0.5 µg/mL (≈ 0.0442 to 0.713 µM) | MIC (Aspergillus terreus, read-out: Geometric Mean MIC): 0.052 µg/mL (≈ 0.0742 µM) | MIC (Aspergillus terreus, read-out: MIC[90]): 0.25 µg/mL (≈ 0.357 µM) | MIC (Aspergillus ustus, read-out: Geometric Mean MIC): 1.64 µg/mL (≈ 2.34 µM) | MIC (Aspergillus ustus, read-out: MIC[90]): 0.25 to 8 µg/mL (≈ 0.357 to 11.4 µM) | MIC (Bipolaris spp, read-out: Geometric Mean MIC): 0.354 µg/mL (≈ 0.505 µM) | MIC (Bipolaris spp, read-out: MIC[90]): 0.125 to 1 µg/mL (≈ 0.178 to 1.43 µM) | MIC (Bjerkandera adusta, read-out: Geometric Mean MIC): 0.25 µg/mL (≈ 0.357 µM) | MIC (Bjerkandera adusta, read-out: MIC[90]): 0.25 µg/mL (≈ 0.357 µM) | MIC (Blastomyces dermatitidis, read-out: Geometric Mean MIC): 0.053 µg/mL (≈ 0.0756 µM) | MIC (Blastomyces dermatitidis, read-out: MIC[90]): 0.125 µg/mL (≈ 0.178 µM) | MIC (Candida albicans, read-out: Geometric Mean MIC): 0.037 µg/mL (≈ 0.0528 µM) | MIC (Candida albicans, read-out: MIC[90]): 0.25 µg/mL (≈ 0.357 µM) | MIC (Candida dubliniensis, read-out: Geometric Mean MIC): 0.062 µg/mL (≈ 0.0885 µM) | MIC (Candida dubliniensis, read-out: MIC[90]): 0.25 µg/mL (≈ 0.357 µM) | MIC (Candida tropicalis, read-out: Geometric Mean MIC): 0.081 µg/mL (≈ 0.116 µM) | MIC (Candida tropicalis, read-out: MIC[90]): 0.25 µg/mL (≈ 0.357 µM) | MIC (Clavispora lusitaniae, Candida lusitaniae, read-out: Geometric Mean MIC): 0.048 µg/mL (≈ 0.0685 µM) | MIC (Clavispora lusitaniae, Candida lusitaniae, read-out: MIC[90]): 0.125 µg/mL (≈ 0.178 µM) | MIC (Coccidioides immitis, read-out: Geometric Mean MIC, Coccidioides immitis): 0.304 µg/mL (≈ 0.434 µM) | MIC (Coccidioides immitis, read-out: MIC[90], Coccidioides immitis): 1 µg/mL (≈ 1.43 µM) | MIC (Cryptococcus neoformans, read-out: Geometric Mean MIC): 0.119 µg/mL (≈ 0.17 µM) | MIC (Cryptococcus neoformans, read-out: MIC[90]): 0.25 µg/mL (≈ 0.357 µM) | MIC (Curvularia spp, read-out: Geometric Mean MIC): 0.072 µg/mL (≈ 0.103 µM) | MIC (Curvularia spp, read-out: MIC[90]): 0.031 to 0.125 µg/mL (≈ 0.0442 to 0.178 µM) | MIC (Debaryomyces hansenii, Candida famata, read-out: Geometric Mean MIC): 0.125 µg/mL (≈ 0.178 µM) | MIC (Debaryomyces hansenii, Candida famata, read-out: MIC[90]): 0.5 µg/mL (≈ 0.713 µM) | MIC (Diutina rugosa, Candida rugosa, read-out: Geometric Mean MIC): 0.039 µg/mL (≈ 0.0557 µM) | MIC (Diutina rugosa, Candida rugosa, read-out: MIC[90]): 0.5 µg/mL (≈ 0.713 µM) | MIC (Dujonia zeylanoides, Candida zeylanoides, read-out: Geometric Mean MIC): 0.031 µg/mL (≈ 0.0442 µM) | MIC (Dujonia zeylanoides, Candida zeylanoides, read-out: MIC[90]): 0.008 to 0.25 µg/mL (≈ 0.0114 to 0.357 µM) | MIC (Epidermophyton floccosum, read-out: Geometric Mean MIC): 0.029 µg/mL (≈ 0.0414 µM) | MIC (Epidermophyton floccosum, read-out: MIC[90]): 0.125 µg/mL (≈ 0.178 µM) | MIC (Exophiala dermatidis, read-out: Geometric Mean MIC): 0.125 µg/mL (≈ 0.178 µM) | MIC (Exophiala dermatidis, read-out: MIC[90]): 0.125 µg/mL (≈ 0.178 µM) | MIC (Exophiala dermatitidis, Wangiella dermatitidis, read-out: Geometric Mean MIC): 0.088 µg/mL (≈ 0.126 µM) | MIC (Exophiala dermatitidis, Wangiella dermatitidis, read-out: MIC[90]): 0.063 to 0.125 µg/mL (≈ 0.0899 to 0.178 µM) | MIC (Exophiala jeanselmei, read-out: Geometric Mean MIC): 0.287 µg/mL (≈ 0.41 µM) | MIC (Exophiala jeanselmei, read-out: MIC[90]): 0.5 µg/mL (≈ 0.713 µM) | MIC (Exophiala moniliae, read-out: Geometric Mean MIC): 0.016 µg/mL (≈ 0.0228 µM) | MIC (Exophiala moniliae, read-out: MIC[90]): 0.016 µg/mL (≈ 0.0228 µM) | MIC (Fonsecae pedrosoi, read-out: Geometric Mean MIC): 0.25 µg/mL (≈ 0.357 µM) | MIC (Fonsecae pedrosoi, read-out: MIC[90]): 0.25 µg/mL (≈ 0.357 µM) | MIC (Fusarium spp, read-out: Geometric Mean MIC): 2.32 µg/mL (≈ 3.31 µM) | MIC (Fusarium spp, read-out: MIC[90]): 16 µg/mL (≈ 22.8 µM) | MIC (Hansenula anomala, Pichia anomala, read-out: Geometric Mean MIC): 0.689 µg/mL (≈ 0.983 µM) | MIC (Hansenula anomala, Pichia anomala, read-out: MIC[90]): 1 µg/mL (≈ 1.43 µM) | MIC (Histoplasma capsulatum, read-out: Geometric Mean MIC, Histoplasma capsulatum): 0.038 µg/mL (≈ 0.0542 µM) | MIC (Histoplasma capsulatum, read-out: MIC[90], Histoplasma capsulatum): 0.25 µg/mL (≈ 0.357 µM) | MIC (Kluyveromyces marxianus, Candida kefyr, read-out: Geometric Mean MIC): 0.081 µg/mL (≈ 0.116 µM) | MIC (Kluyveromyces marxianus, Candida kefyr, read-out: MIC[90]): 0.25 µg/mL (≈ 0.357 µM) | MIC (Kluyveromyces marxianus, read-out: Geometric Mean MIC): 0.079 µg/mL (≈ 0.113 µM) | MIC (Kluyveromyces marxianus, read-out: MIC[90]): 0.063 to 0.25 µg/mL (≈ 0.0899 to 0.357 µM) | MIC (Kodamaea ohmeri, Pichia ohmeri, read-out: Geometric Mean MIC): 0.016 µg/mL (≈ 0.0228 µM) | MIC (Kodamaea ohmeri, Pichia ohmeri, read-out: MIC[90]): 0.016 µg/mL (≈ 0.0228 µM) | MIC (Lodderomyces parapsilosis, Candida parapsilosis, read-out: Geometric Mean MIC): 0.073 µg/mL (≈ 0.104 µM) | MIC (Lodderomyces parapsilosis, Candida parapsilosis, read-out: MIC[90]): 0.125 µg/mL (≈ 0.178 µM) | MIC (Meyerozyma guilliermondii, Candida guilliermondii, read-out: Geometric Mean MIC): 0.178 µg/mL (≈ 0.254 µM) | MIC (Meyerozyma guilliermondii, Candida guilliermondii, read-out: MIC[90]): 0.5 µg/mL (≈ 0.713 µM)
